{
  "source": "paper PMC5218480",
  "about": "(PLoS ONE, 2017)",
  "system": "MV-4-11 cells",
  "assay": "Gene expression microarray analysis (Affymetrix PrimeView) and GSEA",
  "assay_type": "cell-based, human",
  "design": "RFU PODN (11730768_x_at) / Fold change /veh PODN (11730768_x_at) / RFU LINC00158 (11744669_a_at) / Fold change /veh LINC00158 (11744669_a_at) / RFU DUSP10 (11751237_a_at) / Fold change /veh DUSP10 (11751237_a_at) / RFU ID3 (11757404_x_at) / Fold change /veh ID3 (11757404_x_at) / RFU PLEKHG5 (11737974_s_at) / Fold change /veh PLEKHG5 (11737974_s_at) / RFU LRRC4B (11730491_at) / Fold change /veh LRRC4B (11730491_at) / RFU GIMAP4 (11747438_a_at) / Fold change /veh GIMAP4 (11747438_a_at) / RFU KRT8 (11758183_x_at) / Fold change /veh KRT8 (11758183_x_at) / RFU CNN1 (11734310_a_at) / Fold change /veh CNN1 (11734310_a_at) / RFU VPS37D (11726825_at) / Fold change /veh VPS37D (11726825_at) / RFU C10orf10 (11716522_x_at) / Fold change /veh C10orf10 (11716522_x_at) / RFU KIR2DL2 /// KIR2DL4 /// KIR2DL5A /// KIR2DL5B /// KIR2DS1 /// KIR2DS2 /// KIR2DS3 /// KIR2DS4 /// KIR3DL3 /// KIR3DL3 /// KIR3DS1 (11738374_at) / Fold change /veh KIR2DL2 /// KIR2DL4 /// KIR2DL5A /// KIR2DL5B /// KIR2DS1 /// KIR2DS2 /// KIR2DS3 /// KIR2DS4 /// KIR3DL3 /// KIR3DL3 /// KIR3DS1 (11738374_at) / RFU C1QL1 (11718748_at) / Fold change /veh C1QL1 (11718748_at) / RFU TMPRSS4 (11747572_a_at) / Fold change /veh TMPRSS4 (11747572_a_at) / RFU HAMP (11756126_x_at) / Fold change /veh HAMP (11756126_x_at) / RFU RNFT2 (11725882_a_at) / Fold change /veh RNFT2 (11725882_a_at) / RFU NR4A2 (11747474_a_at) / Fold change /veh NR4A2 (11747474_a_at) / RFU ABCC12 (11746883_a_at) / Fold change /veh ABCC12 (11746883_a_at) / RFU TMEM136 (11760407_x_at) / Fold change /veh TMEM136 (11760407_x_at) / RFU CLDN22 /// WWC2 (11732394_at) / Fold change /veh CLDN22 /// WWC2 (11732394_at) / RFU HLA-DPB1 (11760878_x_at) / Fold change /veh HLA-DPB1 (11760878_x_at) / RFU SPINT1 (11716480_a_at) / Fold change /veh SPINT1 (11716480_a_at) / RFU GAP43 (11754022_s_at) / Fold change /veh GAP43 (11754022_s_at) / RFU A4GNT (11735810_at) / Fold change /veh A4GNT (11735810_at) / RFU PRB3 (11715151_x_at) / Fold change /veh PRB3 (11715151_x_at) / RFU TUBB4B (11761932_at) / Fold change /veh TUBB4B (11761932_at) / RFU CAPN14 (11732068_a_at) / Fold change /veh CAPN14 (11732068_a_at) / RFU TMCC2 (11721928_a_at) / Fold change /veh TMCC2 (11721928_a_at) / RFU IRGQ (11745062_a_at) / Fold change /veh IRGQ (11745062_a_at) / RFU FAM174B (11720279_a_at) / Fold change /veh FAM174B (11720279_a_at) / RFU TMPRSS4 (11748680_a_at) / Fold change /veh TMPRSS4 (11748680_a_at) / RFU FAM212B (11763350_a_at) / Fold change /veh FAM212B (11763350_a_at) / RFU PLEKHG5 (11743358_a_at) / Fold change /veh PLEKHG5 (11743358_a_at) / RFU ZSCAN30 (11745921_a_at) / Fold change /veh ZSCAN30 (11745921_a_at) / RFU CMKLR1 (11741424_a_at) / Fold change /veh CMKLR1 (11741424_a_at) / RFU LOC101060620 /// MAPK8IP1 (11723275_at) / Fold change /veh LOC101060620 /// MAPK8IP1 (11723275_at) / RFU SPTSSB (11747773_x_at) / Fold change /veh SPTSSB (11747773_x_at) / RFU PRSS12 (11739890_at) / Fold change /veh PRSS12 (11739890_at) / RFU BIN1 (11741810_x_at) / Fold change /veh BIN1 (11741810_x_at) / RFU WNT11 (11732464_a_at) / Fold change /veh WNT11 (11732464_a_at) / RFU C10orf10 (11716521_a_at) / Fold change /veh C10orf10 (11716521_a_at) / RFU C5orf56 (11738089_at) / Fold change /veh C5orf56 (11738089_at) / RFU CYB561 (11721691_x_at) / Fold change /veh CYB561 (11721691_x_at) / RFU ANKRD19P (11752326_a_at) / Fold change /veh ANKRD19P (11752326_a_at) / RFU OR2T12 /// OR2T33 /// OR2T8 (11738714_s_at) / Fold change /veh OR2T12 /// OR2T33 /// OR2T8 (11738714_s_at) / RFU VCAN (11748164_a_at) / Fold change /veh VCAN (11748164_a_at) / RFU JSRP1 (11732532_at) / Fold change /veh JSRP1 (11732532_at) / RFU KRTAP10-11 (11738290_x_at) / Fold change /veh KRTAP10-11 (11738290_x_at) / RFU MYO3A (11730013_a_at) / Fold change /veh MYO3A (11730013_a_at) / RFU EBF3 (11725865_a_at) / Fold change /veh EBF3 (11725865_a_at) / RFU CAMK2N1 (11719241_x_at) / Fold change /veh CAMK2N1 (11719241_x_at) / RFU C5orf56 (11738088_a_at) / Fold change /veh C5orf56 (11738088_a_at) / RFU OLFML3 (11715873_a_at) / Fold change /veh OLFML3 (11715873_a_at) / RFU LOC100653217 /// NTM (11731650_a_at) / Fold change /veh LOC100653217 /// NTM (11731650_a_at) / RFU MAPK11 (11762145_a_at) / Fold change /veh MAPK11 (11762145_a_at) / RFU FIZ1 (11724087_x_at) / Fold change /veh FIZ1 (11724087_x_at) / RFU OASL (11726364_x_at) / Fold change /veh OASL (11726364_x_at) / RFU SOX15 (11748057_x_at) / Fold change /veh SOX15 (11748057_x_at) / RFU CD79A (11719716_a_at) / Fold change /veh CD79A (11719716_a_at) / RFU HIST1H1D (11736915_at) / Fold change /veh HIST1H1D (11736915_at) / RFU CASKIN2 (11723855_a_at) / Fold change /veh CASKIN2 (11723855_a_at) / RFU LOC730098 (11760151_x_at) / Fold change /veh LOC730098 (11760151_x_at) / RFU OR4N2 (11742367_at) / Fold change /veh OR4N2 (11742367_at) / RFU PRRT2 (11749266_a_at) / Fold change /veh PRRT2 (11749266_a_at) / RFU SNX32 (11753110_a_at) / Fold change /veh SNX32 (11753110_a_at) / RFU CDHR5 (11726645_a_at) / Fold change /veh CDHR5 (11726645_a_at) / RFU RCAN1 (11760418_a_at) / Fold change /veh RCAN1 (11760418_a_at) / RFU FAM167A (11723789_a_at) / Fold change /veh FAM167A (11723789_a_at) / RFU FAM26E (11764081_at) / Fold change /veh FAM26E (11764081_at) / RFU ISYNA1 (11749810_s_at) / Fold change /veh ISYNA1 (11749810_s_at) / RFU ACY1 (11761880_at) / Fold change /veh ACY1 (11761880_at) / RFU 11764098_at / Fold change /veh 11764098_at / RFU SAMD14 (11745864_x_at) / Fold change /veh SAMD14 (11745864_x_at) / RFU NPB (11741838_a_at) / Fold change /veh NPB (11741838_a_at) / RFU TMPRSS6 (11731388_a_at) / Fold change /veh TMPRSS6 (11731388_a_at) / RFU KRTAP10-2 (11738614_at) / Fold change /veh KRTAP10-2 (11738614_at) / RFU ARHGAP8 /// PRR5-ARHGAP8 (11727945_x_at) / Fold change /veh ARHGAP8 /// PRR5-ARHGAP8 (11727945_x_at) / RFU KRTAP5-7 /// NADSYN1 (11734609_at) / Fold change /veh KRTAP5-7 /// NADSYN1 (11734609_at) / RFU RASL12 (11751679_a_at) / Fold change /veh RASL12 (11751679_a_at) / RFU CDKN2B (11736163_a_at) / Fold change /veh CDKN2B (11736163_a_at) / RFU PRF1 (11729649_at) / Fold change /veh PRF1 (11729649_at) / RFU, ZNF638 /// ZNF638-IT1 / Fold change vs veh, ZNF638 /// ZNF638-IT1 / RFU, PANK3 / Fold change vs veh, PANK3 / RFU, SH3YL1 / Fold change vs veh, SH3YL1 / RFU, ZEB2 / Fold change vs veh, ZEB2 / RFU, NRIP1 / Fold change vs veh, NRIP1 / RFU, PTTG1IP / Fold change vs veh, PTTG1IP / RFU, CAPN2 / Fold change vs veh, CAPN2 / RFU, MED14 / Fold change vs veh, MED14 / RFU, SNORA58 / Fold change vs veh, SNORA58 / RFU, C1orf63 / Fold change vs veh, C1orf63 / RFU, LRRFIP1 / Fold change vs veh, LRRFIP1 / RFU, NDUFAF7 / Fold change vs veh, NDUFAF7 / RFU, SLC12A2 / Fold change vs veh, SLC12A2 / RFU, IBTK / Fold change vs veh, IBTK / RFU, ESF1 / Fold change vs veh, ESF1 / Fold change vs veh, TMEM50B / RFU, TAOK1 / Fold change vs veh, TAOK1 / RFU, ACBD3 / Fold change vs veh, ACBD3 / RFU, TMA16 / Fold change vs veh, TMA16 / RFU, RWDD3 / Fold change vs veh, RWDD3 / RFU, BCAT1 / Fold change vs veh, BCAT1 / RFU, EDEM3 / Fold change vs veh, EDEM3 / RFU, TMEM33 / Fold change vs veh, TMEM33 / RFU, WDR75 / Fold change vs veh, WDR75 / RFU, AHCTF1 / Fold change vs veh, AHCTF1 / RFU, TFRC / Fold change vs veh, TFRC / RFU, ZDHHC17 / Fold change vs veh, ZDHHC17 / RFU, NOM1 / Fold change vs veh, NOM1 / RFU, ARL8B / Fold change vs veh, ARL8B / RFU, ZBTB11 / Fold change vs veh, ZBTB11 / RFU, TAMM41 / Fold change vs veh, TAMM41 / RFU, KIAA1704 /// LOC100996395 / Fold change vs veh, KIAA1704 /// LOC100996395 / RFU, ING1 / Fold change vs veh, ING1 / RFU, TRMT61B / Fold change vs veh, TRMT61B / RFU, FUBP3 / Fold change vs veh, FUBP3 / RFU, TP53 / Fold change vs veh, TP53 / RFU, TNKS2 / Fold change vs veh, TNKS2 / RFU, ZFP14 / Fold change vs veh, ZFP14 / RFU, ACTR2 / Fold change vs veh, ACTR2 / RFU, PPP3R1 / Fold change vs veh, PPP3R1 / RFU, PIK3R1 / Fold change vs veh, PIK3R1 / RFU, HNRNPA1 / Fold change vs veh, HNRNPA1 / RFU, RNF170 / Fold change vs veh, RNF170 / RFU, ZNF28 / Fold change vs veh, ZNF28 / RFU, RNGTT / Fold change vs veh, RNGTT / RFU, OGT / Fold change vs veh, OGT / RFU, BRD1 / Fold change vs veh, BRD1 / RFU, MARS / Fold change vs veh, MARS / RFU, ZNF655 / Fold change vs veh, ZNF655 / RFU, FAHD1 / Fold change vs veh, FAHD1 / RFU, BDP1 / Fold change vs veh, BDP1 / RFU, LRRCC1 / Fold change vs veh, LRRCC1 / RFU, ARID1A / Fold change vs veh, ARID1A / RFU, ZNF146 / Fold change vs veh, ZNF146 / RFU, ZNF330 / Fold change vs veh, ZNF330 / RFU, GPN3 / Fold change vs veh, GPN3 / RFU, C9orf123 / Fold change vs veh, C9orf123 / RFU, N4BP2L2 / Fold change vs veh, N4BP2L2 / RFU, ARFIP1 / Fold change vs veh, ARFIP1 / RFU, FAM179B / Fold change vs veh, FAM179B / RFU, BCL10 / Fold change vs veh, BCL10 / RFU, UHRF1BP1L / Fold change vs veh, UHRF1BP1L / RFU, BET1 / Fold change vs veh, BET1 / RFU, CNOT2 / Fold change vs veh, CNOT2 / RFU, ZNF268 / Fold change vs veh, ZNF268 / Fold change vs veh, ZNF507 / RFU, DGCR2 / Fold change vs veh, DGCR2 / RFU, WDSUB1 / Fold change vs veh, WDSUB1 / Fold change vs veh, HSP90B1 /// MIR3652 / RFU, ADSS / Fold change vs veh, ADSS / RFU, GK / Fold change vs veh, GK / RFU, ZNF148 / Fold change vs veh, ZNF148 / RFU, TAF9 / Fold change vs veh, TAF9 / RFU, SLC1A5 / Fold change vs veh, SLC1A5 / RFU, SLMO2 / Fold change vs veh, SLMO2 / RFU, ABCC4 / Fold change vs veh, ABCC4 / RFU, LOC101060439 /// RAP1B / Fold change vs veh, LOC101060439 /// RAP1B / RFU, RFX7 / Fold change vs veh, RFX7 / RFU, GTPBP10 / Fold change vs veh, GTPBP10 / RFU, CNEP1R1 / Fold change vs veh, CNEP1R1 / RFU, BIVM-ERCC5 /// ERCC5 / Fold change vs veh, BIVM-ERCC5 /// ERCC5 / RFU, ILF3 / Fold change vs veh, ILF3 / RFU 11762660_at / Fold change /veh 11762660_at / RFU VCAN (11757783_s_at) / Fold change /veh VCAN (11757783_s_at) / RFU DDX43 (11728927_at) / Fold change /veh DDX43 (11728927_at) / RFU KRT8 (11758188_x_at) / Fold change /veh KRT8 (11758188_x_at) / RFU NKD1 (11759106_at) / Fold change /veh NKD1 (11759106_at) / RFU SRD5A1 (11742802_a_at) / Fold change /veh SRD5A1 (11742802_a_at) / RFU TPSAB1 /// TPSB2 (11721975_s_at) / Fold change /veh TPSAB1 /// TPSB2 (11721975_s_at) / RFU GSTM3 (11746129_a_at) / Fold change /veh GSTM3 (11746129_a_at) / RFU IL23R (11737362_x_at) / Fold change /veh IL23R (11737362_x_at) / RFU TMEM51 (11727254_a_at) / Fold change /veh TMEM51 (11727254_a_at) / RFU PIWIL2 (11732686_x_at) / Fold change /veh PIWIL2 (11732686_x_at) / RFU ORM1 (11744905_x_at) / Fold change /veh ORM1 (11744905_x_at) / RFU CCDC152 (11743942_at) / Fold change /veh CCDC152 (11743942_at) / RFU ECM1 (11717891_a_at) / Fold change /veh ECM1 (11717891_a_at) / RFU IL23R (11748794_a_at) / Fold change /veh IL23R (11748794_a_at) / RFU TNFAIP8L3 (11732012_x_at) / Fold change /veh TNFAIP8L3 (11732012_x_at) / RFU MBOAT4 (11741988_at) / Fold change /veh MBOAT4 (11741988_at) / RFU 11764193_at / Fold change /veh 11764193_at / RFU TMEM53 (11763286_at) / Fold change /veh TMEM53 (11763286_at) / RFU MAGEB2 (11727129_at) / Fold change /veh MAGEB2 (11727129_at) / RFU TMEM200A (11744735_a_at) / Fold change /veh TMEM200A (11744735_a_at) / RFU CCDC152 (11751479_a_at) / Fold change /veh CCDC152 (11751479_a_at) / RFU FAM211A (11726209_a_at) / Fold change /veh FAM211A (11726209_a_at) / RFU RGS16 (11746705_a_at) / Fold change /veh RGS16 (11746705_a_at) / RFU VCAN (11755009_s_at) / Fold change /veh VCAN (11755009_s_at) / RFU RHOB (11743442_s_at) / Fold change /veh RHOB (11743442_s_at) / RFU RGS16 (11720943_a_at) / Fold change /veh RGS16 (11720943_a_at) / RFU RGS16 (11720944_at) / Fold change /veh RGS16 (11720944_at) / RFU, VPS4B / Fold change vs veh, VPS4B / RFU, CREB1 / Fold change vs veh, CREB1 / RFU, DNAJC13 / Fold change vs veh, DNAJC13 / RFU, GNAQ / Fold change vs veh, GNAQ / RFU, CDK5R1 / Fold change vs veh, CDK5R1 / RFU, ZRANB3 / Fold change vs veh, ZRANB3 / RFU, CUL4A / Fold change vs veh, CUL4A / RFU, CCNY / Fold change vs veh, CCNY / RFU, UFL1 / Fold change vs veh, UFL1 / RFU, COG3 / Fold change vs veh, COG3 / RFU, DIAPH2 / Fold change vs veh, DIAPH2 / RFU, SKA2 / Fold change vs veh, SKA2 / RFU, AFF3 / Fold change vs veh, AFF3 / RFU, LMF1 / Fold change vs veh, LMF1 / RFU, IPO11 / Fold change vs veh, IPO11 / RFU, DFFB / Fold change vs veh, DFFB / RFU, FOXP1 / Fold change vs veh, FOXP1 / RFU, CARD8 / Fold change vs veh, CARD8 / RFU, STRN3 / Fold change vs veh, STRN3 / RFU, ADK / Fold change vs veh, ADK / RFU, RASSF2 / Fold change vs veh, RASSF2 / RFU, WIPF1 / Fold change vs veh, WIPF1 / RFU, LARP1B / Fold change vs veh, LARP1B / RFU, RASA1 / Fold change vs veh, RASA1 / RFU, RB1 / Fold change vs veh, RB1 / RFU, PPFIA1 / Fold change vs veh, PPFIA1 / RFU, MAT2A / Fold change vs veh, MAT2A / RFU, CCT5 / Fold change vs veh, CCT5 / RFU, WDR92 / Fold change vs veh, WDR92 / RFU, CUX1 / Fold change vs veh, CUX1 / RFU, TTC7A / Fold change vs veh, TTC7A / RFU, TMEM135 / Fold change vs veh, TMEM135 / RFU, DEPTOR / Fold change vs veh, DEPTOR / RFU, CPM / Fold change vs veh, CPM / RFU, DNAJB6 / Fold change vs veh, DNAJB6 / RFU, CACNA2D3 / Fold change vs veh, CACNA2D3 / RFU, DTX4 / Fold change vs veh, DTX4 / RFU, TFCP2 / Fold change vs veh, TFCP2 / RFU, GMCL1 /// GMCL1P1 / Fold change vs veh, GMCL1 /// GMCL1P1 / RFU, AEBP2 / Fold change vs veh, AEBP2 / RFU, SNHG1 /// SNORD22 /// SNORD25 /// SNORD26 /// SNORD27 /// SNORD28 /// SNORD29 /// SNORD31 / Fold change vs veh, SNHG1 /// SNORD22 /// SNORD25 /// SNORD26 /// SNORD27 /// SNORD28 /// SNORD29 /// SNORD31 / Fold change (Aza/veh), C12orf56 (ProbeSet 11735607_a_at) / Fold change (ACY-1035/veh), C12orf56 (ProbeSet 11735607_a_at) / Fold change (Aza/veh), FGFR1OP (ProbeSet 11751329_s_at) / Fold change (ACY-1035/veh), FGFR1OP (ProbeSet 11751329_s_at) / Fold change (Aza/veh), VPS36 (ProbeSet 11739960_a_at) / Fold change (ACY-1035/veh), VPS36 (ProbeSet 11739960_a_at) / RFU SYPL1 (11715823_x_at) / Fold change /veh SYPL1 (11715823_x_at) / RFU IGFBP7 (11715501_s_at) / Fold change /veh IGFBP7 (11715501_s_at) / RFU REEP3 (11722064_at) / Fold change /veh REEP3 (11722064_at) / RFU IGLL1 (11728026_x_at) / Fold change /veh IGLL1 (11728026_x_at): dose or concentration left out as unconfirmed",
  "conditions": "MV-4-11 cells, 48 hours",
  "data": [
    {"smiles": "Nc1ncn([C@@H]2O[C@H](CO)[C@@H](O)[C@H]2O)c(=O)n1", "note": "[azacitidine]", "values": [
      {"measurement": "RFU ANKRD19P (11752326_a_at)", "value": 6.34, "unit": "RFU"}
    ]}
  ]
}
